Reference: US20250171462A1 (NICO Therapeutics, Inc., priority 2022, published 2025)
Where two headings read alike, the source gives them in different places.

Biological target: T1, full-length SARM1 (FL-SARM1) (Homo sapiens, UniProt Q6SZW1)
T1 sequence (Q6SZW1 28-724): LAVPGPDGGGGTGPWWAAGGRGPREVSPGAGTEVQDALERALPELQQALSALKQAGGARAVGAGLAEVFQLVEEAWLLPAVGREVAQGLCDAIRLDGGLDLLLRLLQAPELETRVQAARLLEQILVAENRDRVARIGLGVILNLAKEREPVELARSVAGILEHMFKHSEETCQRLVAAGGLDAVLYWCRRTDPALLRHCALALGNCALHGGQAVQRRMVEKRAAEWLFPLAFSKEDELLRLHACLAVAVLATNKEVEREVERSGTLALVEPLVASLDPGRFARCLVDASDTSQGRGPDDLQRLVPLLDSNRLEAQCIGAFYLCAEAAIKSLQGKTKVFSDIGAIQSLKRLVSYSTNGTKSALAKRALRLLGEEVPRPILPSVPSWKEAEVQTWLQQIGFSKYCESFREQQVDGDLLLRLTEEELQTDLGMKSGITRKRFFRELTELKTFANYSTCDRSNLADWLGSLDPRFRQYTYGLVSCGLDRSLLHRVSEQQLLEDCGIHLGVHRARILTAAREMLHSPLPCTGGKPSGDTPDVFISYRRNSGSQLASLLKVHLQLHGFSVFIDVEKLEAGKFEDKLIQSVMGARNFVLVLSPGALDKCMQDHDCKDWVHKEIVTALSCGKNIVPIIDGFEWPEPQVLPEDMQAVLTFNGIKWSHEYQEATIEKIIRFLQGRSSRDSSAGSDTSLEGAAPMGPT
Assay: FL-SARM1 cellular lysate assay (NAD/NADH-Glo detection of remaining NAD+, NMN-activated)

[1] = Activity (IC50 class), 11 point curve
[2] = Activity (μM) (IC50), 11 point curve
[3] = read-out: Activity (IC50 class), 11 point curve

Procedure: Preparation of full-length SARM1 (FL-SARM1) lysate: HEK293T cells (ATCC: CRL-3216) were grown on 150 mm TC-treated dishes to 80-90% confluency in complete DMEM (DMEM (Thermo Fisher: 11965175) supplemented with 10% HI—FBS (VWR: 10802-772), 1× Pen/Strep (Thermo Fisher: 15140122), 1×NEAA (Thermo Fisher: 1140050), 1× glutamax (Thermo Fisher: 35050061), and 1 mM sodium pyruvate (Thermo Fisher: 11360070)) at 37° C. and 5% CO2. One hour prior to transfection, the media was replaced with fresh, 37° C. complete DMEM (20 mL per one 150 mm dish) supplemented with additional 10 mM glucose (Alfa Aesar AAJ60067EQE). Per one 150 mm dish, 30 μg FL-SARM1 (SEQ. ID. 1; cloned in-house) plasmid was dissolved in 1 mL DMEM at ambient temperature and were mixed by inverting the tube 8-10 times. 90 μL of GenJet™ in vitro DNA transfection reagent (Ver2) was dissolved in 1 mL DMEM at ambient temperature and were mixed by inverting the tube 8-10 times. The plasmid and transfection agent solutions were combined, mixed by 8-10 inversions and incubated for 10 minutes at ambient temperature. 2 mL of this transfection mixture was added to each dish containing HEK293T cells as prepared above followed by a gentle mixing of 4-5 horizontal rotations. The dishes were incubated at 37° C. and 5% CO2 for 24 h. The dishes were removed from the incubator, the medium was aspirated and the cells were scraped off using cell scrapers in ice-cold 1×PBS (5 mL/dish, Thermo Fisher Scientific 10010023). The collected cells were centrifuged at 300 g for 5 minutes at 4° C. The supernatant was aspirated and the pellet was frozen at −80° C. until needed. The cell pellet from 30 dishes was dissolved in 30 mL 1×PBS supplemented with 4 tablets of Complete, Mini EDTA-free protease inhibitor cocktail at 4° C. This mixture was sonicated on ice for 10 minutes at 50% amplitude with a 1 second on/1 second off interval using a Model 120 sonicator (Thermo Fisher Scientific, FB120110). The lysate was centrifuged at 16000 g for 10 minutes at 4° C.
To a white 384-well Proxiplate (PerkinElmer, PE-6008280) was added 50 nL/well of a DMSO solution containing test compounds followed by 7.5 μL/well of a 0.067 mg/mL solution of SARMi cellular lysate in reaction buffer (DPBS containing CHAPSO (0.1%) and fatty acid free BSA (0.032%)). The plate was centrifuged for 1 minute at 1000 RPM and then placed in an incubator at 23° C. for 15 minutes. To the wells were added 2.5 μL/well of a solution containing 40 M NAD^+ and 4 mM nicotinamide mononucleotide (NMN) in reaction buffer. The plate was centrifuged for 1 min at 1000 RPM, the plate was sealed and placed in an incubator at 23° C. for 3.5 hours before adding 3.5 μL/well of NAD/NADH-Glo™ solution (preparation as described by Promega using the extended detection protocol). The plate was centrifuged for 1 minute at 1000 RPM and then incubated at 23° C. for 20 minutes. 1 μL/well of a 3.625 mM solution of menadione in DMSO was added and the plate was centrifuged for 1 minute at 1000 RPM. Relative light units (RLU) were recorded using an Envision plate reader at a height of 6.5 mm.
IC50 values were calculated from an 11 point curve using ½ log dilutions using a four-parameter logistic regression curve fit.

| Compound | IC50 [1] [µM] | IC50 [2] [µM] | IC50 [3] [µM] |
| --- | --- | --- | --- |
| Cc1ccc(NC(=O)C2C[C@H]3C[C@@H]23)cc1-c1ccccn1 (stereo partly drawn) [Example 117, cis-N-(4-methyl-3-pyridin-2-ylphenyl)bicyclo[2.1.0]pentane-2-carboxamide] | 1 to 10 | 4.6 | – |
| COc1ccnc(-c2cc(NC(=O)N3C4CCCC3C4)ccc2C)n1 [Example 65, N-(3-(4-methoxypyrmidin-2-yl)-4-methyl-phenyl)-6-azabicyclo[3.1.1]heptane-6-carboxamide] | 1 to 10 | 2.3 | – |
| Cc1ccc(NC(=O)N2CCOc3ccccc3C2)cc1-c1ccccn1 [Example 102, N-(4-methyl-3-pyridin-2-ylphenyl)-3,5-dihydro-2H-1,4-benzoxazepine-4-carboxamide] | – | 0.9 | 0.0001 to 1 |
| Cc1ccc(NC(=O)C2CN(CC(F)(F)F)C2)cc1-c1ccccn1 [Example 132, N-(4-methyl-3-pyridin-2-ylphenyl)-1-(2,2,2-trifluoroethyl)azetidine-3-carboxamide] | > 10 | 43 | – |
| Cc1ccc(NC(=O)[C@H]2C[C@@H]2C(F)(F)F)cc1-c1ccccn1 (racemic) [Example 128, trans-N-(4-methyl-3-pyridin-2-ylphenyl)-2-(trifluoromethyl)cyclopropane-1-carboxamide] | 1 to 10 | 4.3 | – |
| Cc1ccc(NC(=O)[C@H]2CC[C@@H](C)N2c2ccc(C#N)cn2)cc1-c1ncc(F)cn1 [Example 285, (2R,5R)-1-(5-cyanopyridin-2-yl)-N-[3-(5-fluoropyrimidin-2-yl)-4-methylphenyl]-5-methylpyrrolidine-2-carboxamide] | 1 to 10 | 2.2 | – |
| Cc1cc(F)c(NC(=O)N2C3CCCC2C3)cc1-c1cc(Cl)cnn1 [Example 247, N-[5-(5-chloropyridazin-3-yl)-2-fluoro-4-methylphenyl]-6-azabicyclo[3.1.1]heptane-6-carboxamide] | – | 0.4 | 0.0001 to 1 |
| COC(C)[C@@]12CC(C[C@@H](C)C1)N2C(=O)Nc1ccc(C(F)(F)F)c(-c2nccnn2)c1 (single isomer, unassigned) [Example 209, cis-N-(3-(1,2,4-triazin-3-yl)-4-(trifluoromethyl)phenyl)-1-(1-methoxyethyl)-3-methyl-6-azabicyclo[3.1.1]heptane-6-carboxamide] | – | 0.5 | 0.0001 to 1 |
| Cc1ccc(NC(=O)N2C3CCCC2C3)cc1-c1ncc(F)c(C#N)n1 [Example 251, N-[3-(4-cyano-5-fluoropyrimidin-2-yl)-4-methylphenyl]-6-azabicyclo[3.1.1]heptane-6-carboxamide] | 1 to 10 | 1 | – |
| Cc1ccc(NC(=O)C2C3CC(C3)N2c2ccccn2)cc1-c1ncc(F)cn1 (stereo not drawn) [Example 271, N-(3-(5-fluoropyrimidin-2-yl)-4-methylphenyl)-2-(pyridin-2-yl)-2-azabicyclo[2.1.1]hexane-3-carboxamide] | > 10 | 17 | – |
| Cc1cc(C(F)(F)F)c(NC(=O)N2[C@@H]3C[C@@H](C)C[C@H]2C3)cc1-c1cccnn1 [Example 244, cis-3-methyl-N-[4-methyl-5-pyridazin-3-yl-2-(trifluoromethyl)phenyl]-6-azabicyclo[3.1.1]heptane-6-carboxamide] | > 10 | 16 | – |
| Cc1ccc(NC(=O)C(C)(C)C2CCC2)cc1-c1cccnn1 [Example 296, 2-cyclobutyl-2-methyl-N-(4-methyl-3-pyridazin-3-ylphenyl)propanamide] | 1 to 10 | 4.3 | – |
| COc1cnnc(-c2cc(NC(=O)N3C4CCCC3C4)c(F)cc2C)c1 [Example 249, N-[2-fluoro-5-(5-methoxypyridazin-3-yl)-4-methylphenyl]-6-azabicyclo[3.1.1]heptane-6-carboxamide] | – | 0.9 | 0.0001 to 1 |
| Cc1ccc(NC(=O)N2[C@@H]3C[C@@H](F)C[C@H]2C3)cc1-c1ccccn1 [Example 27, cis-3-fluoro-N-(4-methyl-3-(pyridin-2-yl)phenyl)-6-azabicyclo[3.1.1]heptane-6-carboxamide] | – | 0.1 | 0.0001 to 1 |
| Cc1ccc(NC(=O)C2CCCC2C)cc1-c1ccccn1 (stereo not drawn) [Example 114, 2-methyl-N-(4-methyl-3-pyridin-2-ylphenyl)cyclopentane-1-carboxamide] | – | 0.7 | 0.0001 to 1 |
| Cc1cc(Cl)c(NC(=O)N2C3CCCC2C3)cc1-c1ccccn1 [Example 82, N-(2-chloro-4-methyl-5-pyridin-2-ylphenyl)-6-azabicyclo[3.1.1]heptane-6-carboxamide] | 1 to 10 | 1.5 | – |
| Cc1ccc(NC(=O)[C@@H]2CC2(F)F)cc1-c1ccc(C#N)cn1 [Example 158, (1S)-N-[3-(5-cyanopyridin-2-yl)-4-methylphenyl]-2,2-difluorocyclopropane-1-carboxamide] | > 10 | 37 | – |
| Cc1ccc(NC(=O)C2CCC(C)CCN2c2ccccn2)cc1-c1ncccn1 (mixture of isomers) [Example 259, 5-methyl-N-(4-methyl-3-(pyrimidin-2-yl)phenyl)-1-(pyridin-2-yl)azepane-2-carboxamide] | 1 to 10 | 5.8 | – |
| Cc1ccc(NC(=O)C2(O)CCCC2)cc1-c1ccccn1 [Example 115, 1-hydroxy-N-(4-methyl-3-pyridin-2-ylphenyl)cyclopentane-1-carboxamide] | > 10 | 36 | – |
| Cc1ccc(NC(=O)C(C)C(F)(F)F)cc1-c1ncccn1 (racemic) [Example 169, 3,3,3-trifluoro-2-methyl-N-(4-methyl-3-pyrimidin-2-ylphenyl)propanamide] | > 10 | 21 | – |
| O=C(Nc1ccc(C(F)(F)F)c(-c2ccccn2)c1)[C@@H]1CC1(F)F [Example 150, (1S)-2,2-difluoro-N-[3-pyridin-2-yl-4-(trifluoromethyl)phenyl] cyclopropane-1-carboxamide] | 1 to 10 | 3.7 | – |
| Cc1ccc(NC(=O)[C@H]2C[C@@H](C(F)(F)F)CN2c2ncn(C)n2)cc1-c1ncc(F)cn1 [Example 175, (2R,4R)—N-(3-(5-fluoropyrimidin-2-yl)-4-methylphenyl)-1-(1-methyl-1H-1,2,4-triazol-3-yl)-4-(trifluoromethyl)pyrrolidine-2-carboxamide] | 1 to 10 | 2.4 | – |
| Cc1ccc(NC(=O)C2C3CCC2CC3)cc1-c1ncccn1 (stereo not drawn) [Example 106, N-(4-methyl-3-pyrimidin-2-ylphenyl)bicyclo[2.2.1]heptane-7-carboxamide] | 1 to 10 | 1 | – |
| O=C(Nc1ccc(C(F)(F)F)c(-c2ccc(F)cn2)c1)N1C2CCC1c1ccccc12 [Example 57, N-(3-(5-fluoropyridin-2-yl)-4-(trifluoromethyl)phenyl)-1,2,3,4-tetrahydro-1,4-epiminonaphthalene-9-carboxamide] | 1 to 10 | 3.7 | – |
| O=C(Nc1ccc(C(F)(F)F)c(-c2ncc(F)cn2)c1)C1C2CCC1CC2 (stereo not drawn) [Example 303, N-(3-(5-fluoropyrimidin-2-yl)-4-(trifluoromethyl)phenyl) bicyclo[2.2.1]heptane-e-7-carboxamide] | – | 0.5 | 0.0001 to 1 |
| CC(C)c1ccc(NC(=O)[C@@H]2CC2(F)F)cc1-c1ccccn1 [Example 151, (1S)-2,2-difluoro-N-(4-propan-2-yl-3-pyridin-2-ylphenyl)cyclopropane-1-carboxamide] | 1 to 10 | 4.2 | – |
| COCC1COc2ccccc2CN1C(=O)Nc1ccc(C)c(-c2ncc(F)cn2)c1 (racemic) [Example 309, N-(3-(5-fluoropyrimidin-2-yl)-4-methylphenyl)-3-(methoxymethyl)-2,3-dihydrobenzo[f][1,4] oxazepine-4(5H)-carboxamide] | 1 to 10 | 1.1 | – |
| CO[C@@H]1CCCCN(C(=O)Nc2ccc(C(F)(F)F)c(-c3ncc(F)cn3)c2)C1 [Example 308, (R)-N-(3-(5-fluoropyrimidin-2-yl)-4-(trifluoromethyl)phenyl)-3-methoxyazepane-1-carboxamide] | > 10 | 32 | – |
| Cc1ccc(NC(=O)N2CC3CC3(c3ccccc3)C2)cc1-c1ccccn1 (stereo not drawn) [Example 94, N-(4-methyl-3-pyridin-2-ylphenyl)-1-phenyl-3-azabicyclo[3.1.0]hexane-3-carboxamide] | > 10 | 15 | – |
| Cc1ccc(NC(=O)N2C3CCC2[C@H](C)C3)cc1-c1ncc(F)cn1 (single isomer, unassigned) [Example 198, trans-N-[3-(5-fluoropyrimidin-2-yl)-4-methylphenyl]-2-methyl-7-azabicyclo[2.2.1]heptane-7-carboxamide] | – | 0.3 | 0.0001 to 1 |
